Where two headings read alike, the source gives them in different places.
Legend:
[1] = Compatibility studies of bendamustine with excipients (1:1 binary mixtures); assay type: physicochemical; settings: for Total impurities %: open container, one month
Method: Compatibility studies of bendamustine with different excipients used in hot melt extrusion process were realised with incubation of 1:1 (w/w) binary mixtures of these excipients with bendamustine at 40° C. 75% RH in an open container for one month.

[2] = Temperature stability studies of bendamustine; assay type: physicochemical
Method: Temperature stability studies of bendamustine were conducted with treatment of bendamustine at given temperatures for 10 minutes.

[3] = Rat studies to determine oral bioavailability of bendamustine; settings: male, Sprague-Dawley, in vivo; for AUC(0-inf): read-out: mean AUC0-∞
Method: Rat studies were carried out with the extrudate to determine the oral bioavailability of bendamustine. For this purpose 3 mg/kg bendamustine was applied parenterally to 3 animals and samples were taken at 0, 0.083, 0.25, 0.5, 1, 2, 4, 8 hours and analyzed with a validated HPLC/MS method. Furthermore extrudates of the invention were applied orally to 9 rats with a bendamustine concentration of 10.8 mg/kg. Samples were taken at 0, 0.25, 0.5, 1, 2, 4, 6, 8 hours and analyzed with a validated HPLC/MS method

[4] = mice; cited from earlier work

**Q.** Which Total impurities % ([1]; 1:1 (w/w) mixture with Ascorbic acid, 40° C. 75% RH) does the source give for `Cn1c(CCCC(=O)O)nc2cc(N(CCCl)CCCl)ccc21` [bendamustine, 4-[5-[Bis(2-chloroethyl)amino]-1-methylbenzimidazol-2-yl]butanoic acid] here?
**A.** The Total impurities % was 0.121%.

**Q.** And the Total impurities % ([1]; 1:1 (w/w) mixture with Citric acid, 40° C. 75% RH)?
**A.** Its Total impurities % is 0.098%.

**Q.** And the Total impurities % ([1]; 1:1 (w/w) mixture with Ditert butyl methyl phenol, 40° C. 75% RH)?
**A.** The Total impurities % was 0.258%.

**Q.** What about the Total impurities % ([1]; 1:1 (w/w) mixture with Eudragit ® EPO, 40° C. 75% RH) of the same compound?
**A.** Its Total impurities % is 0.154%.

**Q.** What about the Total impurities % ([1]; 1:1 (w/w) mixture with Kollidone VA64, 40° C. 75% RH) of the same compound?
**A.** The Total impurities % was 0.091%.

**Q.** And the Total impurities % ([1]; 1:1 (w/w) mixture with PEG 1000, 40° C. 75% RH)?
**A.** The Total impurities % was 0.326%.

**Q.** And the Total impurities % ([1]; 1:1 (w/w) mixture with PEG 2000, 40° C. 75% RH)?
**A.** Its Total impurities % is 0.229%.

**Q.** And the Total impurities % ([1]; 1:1 (w/w) mixture with Plasdone K12, 40° C. 75% RH)?
**A.** Its Total impurities % is 0.124%.

**Q.** And the Total impurities % ([1]; 1:1 (w/w) mixture with Soluplus, 40° C. 75% RH)?
**A.** Its Total impurities % is 0.118%.

**Q.** What about the Total impurities % ([1]; 1:1 (w/w) mixture with Vit E acetate, 40° C. 75% RH) of the same compound?
**A.** The Total impurities % was 0.101%.

**Q.** What about the Compatibility with excipients ([1]; with large amounts of PEG 2000, PEG 1000 and Diter butyl methyl phenol, 40° C. 75% RH) of the same compound?
**A.** The Compatibility with excipients was “incompatibility”.

**Q.** And the Assay % ([2]; 70 ° C. for 10 minutes)?
**A.** The Assay % was 101.75%.

**Q.** What about the “Total Impurity %” value ([2]; 70 ° C. for 10 minutes) of the same compound?
**A.** Its value is 0.7%.

**Q.** What about the Assay % ([2]; 100 ° C. for 10 minutes) of the same compound?
**A.** The Assay % was 99.216%.

**Q.** And the “Total Impurity %” value ([2]; 100 ° C. for 10 minutes)?
**A.** Its value is 0.8%.

**Q.** What about the Assay % ([2]; 120 ° C. for 10 minutes) of the same compound?
**A.** The Assay % was 97.732%.

**Q.** And the “Total Impurity %” value ([2]; 120 ° C. for 10 minutes)?
**A.** Its value is 1.3%.

**Q.** And the bioavailability ([3]; iv, 3 mg/kg)?
**A.** Its bioavailability is 100%.

**Q.** And the AUC(0-inf) ([3]; iv, 3 mg/kg)?
**A.** The AUC(0-inf) was 675 ng·h/mL.

**Q.** What about the bioavailability ([3]; po, 10 mg/kg) of the same compound?
**A.** Its bioavailability is 33%.

**Q.** What about the AUC(0-inf) ([3]; po, 10 mg/kg) of the same compound?
**A.** Its AUC(0-inf) is 742 ng·h/mL.

**Q.** What about the oral bioavailability [4] of the same compound?
**A.** Its oral bioavailability is 40%.
